Assay results reported in PubChem BioAssay (NCI).
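Exposure lasted 48 hours, with cells grown in 96-well plates and compounds tested at five concentrations. GI50 is the concentration that inhibits growth by half. TGI marks complete inhibition of growth.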

What was measured:
Assay in all cases: DTP human tumour cell line panel, 48 h
[1] = test system: A549 NSCLC
[2] = test system: A498 renal
[3] = test system: CCRF-CEM leukemia
[4] = test system: IGROV1 ovarian
[5] = test system: OVCAR-8 ovarian
[6] = test system: SNB-19 CNS
[7] = test system: ACHN renal
[8] = test system: T-47D breast
[9] = test system: TK-10 renal
[10] = test system: UO-31 renal
[11] = test system: U251 CNS
[12] = test system: NCI-H23 lung
[13] = test system: NCI-H460 lung
[14] = test system: SF-539 CNS
[15] = test system: BT-549 breast
[16] = test system: MCF7 breast
[17] = test system: RPMI-8226 leukemia
[18] = test system: HOP-62 NSCLC
[19] = test system: HCT-116 colon
[20] = test system: SNB-75 CNS
[21] = test system: SK-OV-3 ovarian
[22] = test system: UACC-62 melanoma
[23] = test system: UACC-257 melanoma
[24] = test system: RXF 393 renal
[25] = test system: EKVX NSCLC
[26] = test system: NCI-H226 lung
[27] = test system: K-562 leukemia
[28] = test system: HOP-92 NSCLC
[29] = test system: KM12 colon
[30] = test system: NCI-H522 lung
[31] = test system: MDA-MB-435
[32] = test system: SF-268 CNS
[33] = test system: 786-0 renal
[34] = test system: HS 578T breast
[35] = test system: HL-60(TB) leukemia
[36] = test system: CAKI-1 renal
[37] = test system: DU-145 prostate

C#C[C@]1(O)CC[C@H]2[C@@H]3CC=C4c5sc(Nc6nc(C)cc(OC)n6)nc5CC[C@]4(C)[C@H]3CC[C@@]21C
GI50 [1]: 2970 nM
TGI [1]: > 100000 nM
GI50 [2]: 1510 nM
TGI [2]: 5930 nM
GI50 [3]: 1210 nM
TGI [3]: > 100000 nM
GI50 [4]: 3440 nM
TGI [4]: > 100000 nM
GI50 [5]: 4160 nM
TGI [5]: > 100000 nM
GI50 [6]: 986 nM
TGI [6]: > 100000 nM
GI50 [7]: 1190 nM
TGI [7]: > 100000 nM
GI50 [8]: 2570 nM
TGI [8]: > 100000 nM
GI50 [9]: 14900 nM
TGI [9]: > 100000 nM
GI50 [10]: 575 nM
TGI [10]: 3180 nM
GI50 [11]: 575 nM
TGI [11]: 73100 nM
GI50 [12]: 3930 nM
TGI [12]: > 100000 nM
GI50 [13]: 1820 nM
TGI [13]: > 100000 nM
GI50 [14]: 264 nM
TGI [14]: 1430 nM
GI50 [15]: 4500 nM
TGI [15]: 79900 nM
GI50 [16]: 1410 nM
TGI [16]: > 100000 nM
GI50 [17]: 239 nM
TGI [17]: 899 nM
GI50 [18]: 2010 nM
TGI [18]: 35200 nM
GI50 [19]: 1240 nM
TGI [19]: > 100000 nM
GI50 [20]: 864 nM
TGI [20]: 84800 nM
GI50 [21]: 1550 nM
TGI [21]: 9130 nM
GI50 [22]: 540 nM
TGI [22]: 2730 nM
GI50 [23]: 1740 nM
TGI [23]: 4820 nM
GI50 [24]: 161 nM
TGI [24]: 497 nM
GI50 [25]: 2390 nM
TGI [25]: > 100000 nM
GI50 [26]: > 100000 nM
TGI [26]: > 100000 nM
GI50 [27]: 528 nM
TGI [27]: > 100000 nM
GI50 [28]: 2650 nM
TGI [28]: 7690 nM
GI50 [29]: 3160 nM
TGI [29]: > 100000 nM
GI50 [30]: 3020 nM
TGI [30]: > 100000 nM
GI50 [31]: 2350 nM
TGI [31]: > 100000 nM
GI50 [32]: 5470 nM
TGI [32]: > 100000 nM
GI50 [33]: 379 nM
TGI [33]: 2280 nM
GI50 [34]: 323 nM
TGI [34]: 2190 nM
GI50 [35]: 531 nM
TGI [35]: 5380 nM
GI50 [36]: 1550 nM
TGI [36]: > 100000 nM
GI50 [37]: 3250 nM
TGI [37]: > 100000 nM
